Measured values taken from PubChem BioAssay (NCI).
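Five concentrations, 48 hours, 96-well plates. Abbreviation: GI50, concentration required for 50% inhibition of growth. The concentration for full growth arrest is given as TGI.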

Key:
Assay in all cases: inhibition of tumour cell growth, NCI panel, 48 h
M14 melanoma = test system: M14 melanoma
OVCAR-3 ovarian = test system: OVCAR-3 ovarian
DU-145 prostate = test system: DU-145 prostate
HL-60(TB) leukemia = test system: HL-60(TB) leukemia
MCF7 breast = test system: MCF7 breast
SW-620 colon = test system: SW-620 colon
PC-3 prostate = test system: PC-3 prostate
HOP-92 NSCLC = test system: HOP-92 NSCLC
MOLT-4 leukemia = test system: MOLT-4 leukemia
SN12C renal = test system: SN12C renal

SMILES	GI50 (M14 melanoma)	TGI (M14 melanoma)	GI50 (OVCAR-3 ovarian)	TGI (OVCAR-3 ovarian)	GI50 (DU-145 prostate)	TGI (DU-145 prostate)	GI50 (HL-60(TB) leukemia)	TGI (HL-60(TB) leukemia)	GI50 (MCF7 breast)	TGI (MCF7 breast)	GI50 (SW-620 colon)	TGI (SW-620 colon)	GI50 (PC-3 prostate)	TGI (PC-3 prostate)	GI50 (HOP-92 NSCLC)	TGI (HOP-92 NSCLC)	GI50 (MOLT-4 leukemia)	TGI (MOLT-4 leukemia)	GI50 (SN12C renal)	TGI (SN12C renal)
C#CCN(Cc1nc2cc(C(F)(F)F)ccc2nc1-c1ccccc1)c1ccc(C)cc1	5.4 µM	32 µM	3.7 µM	16.8 µM	> 34.5 µM	> 77.9 µM	3.85 µM	> 74.5 µM	2.38 µM	> 59.1 µM	12.8 µM	> 100 µM	> 62.6 µM	> 100 µM	31.7 µM	> 84.8 µM	3.1 µM	> 79.9 µM	> 28.2 µM	> 59.9 µM
Cc1ccc2c(c1)c(Sc1ccc(C(=O)NO)cc1)c1n2CN(C)CC1	1.72 µM	3.79 µM	1.93 µM	5.63 µM	1.83 µM	5.28 µM	2.35 µM	6.4 µM	2.44 µM	11.5 µM	1.77 µM	4.45 µM	1.5 µM	3.77 µM	2.1 µM	6.37 µM	2.05 µM	6.98 µM	2.28 µM	6.79 µM
CCc1nc(N)nc(N)c1-c1ccc2nnn(O)c2c1		> 100 µM		> 100 µM		> 100 µM		> 100 µM		> 100 µM		> 100 µM		> 100 µM		> 100 µM		> 100 µM		> 100 µM
N=C(N)SCc1c2ccccc2c(CSC(=N)N)c2ccccc12	10.9 µM	25.5 µM	12.4 µM	30.2 µM	5.63 µM	20 µM	4.06 µM	23.3 µM	1.54 µM	15.5 µM	3.75 µM	19.7 µM	10.3 µM	23.9 µM	2.8 µM	19.9 µM	1.24 µM	8.23 µM	3 µM	25.7 µM
COCCNc1ccc2c3c(cccc13)C(=O)N(CCN(C)C)C2=O	7.98 µM	> 25 µM	8.65 µM	> 25 µM	9.41 µM	> 25 µM	6.78 µM	14.4 µM	6.5 µM	23.4 µM	6.69 µM	> 25 µM	9.76 µM	> 25 µM	10.2 µM	> 25 µM	4.98 µM	13 µM	7.23 µM	> 25 µM
CC1=NN(c2ccc(S(=O)(=O)O)cc2)C(=O)/C1=C/c1ccc(Cl)cc1		> 100 µM		> 100 µM		> 100 µM		> 100 µM		> 100 µM		> 100 µM		> 100 µM		> 100 µM		> 100 µM		> 100 µM
C[C@@H]1CCC([C@@H](C)[C@H]2CC[C@H]3[C@@H]4CC[C@H]5C[C@@H](O)CC[C@]5(C)[C@H]4CC[C@]23C)=NC1		> 48.9 µM		> 100 µM		> 100 µM		> 21.2 µM		> 54.8 µM		> 100 µM		> 100 µM		> 100 µM		> 66 µM		> 100 µM
CCCCCCCCC/C(=N\NC(=O)c1ccncc1)c1ccc(O)c(O)c1O	0.175 µM	1.14 µM	0.0616 µM	> 35.7 µM	0.274 µM	> 100 µM	0.288 µM	0.955 µM	0.309 µM	18.3 µM	0.365 µM	28.3 µM	1.6 µM	> 100 µM	0.385 µM	> 100 µM	0.246 µM	25.3 µM	0.207 µM	35 µM
N/C(=N/N=C/c1ccccc1)N/N=C\c1ccccc1	3.4 µM	29.8 µM	2.66 µM	7.8 µM	5.54 µM	92.7 µM	3.9 µM	23 µM	3.4 µM	> 100 µM	3.86 µM	> 100 µM	6.21 µM	> 100 µM	2.52 µM	42.2 µM	4.39 µM	47.3 µM	5.6 µM	> 100 µM
O=C1C=CC(=O)c2c1ccc1c3ccccc3n(-c3ccccc3)c21		21.2 µM		21.9 µM		37.2 µM		2.34 µM		> 100 µM		7.31 µM		27 µM		7.78 µM		2.89 µM		26.6 µM
COc1ccc(Nc2cc(C)nc(NCc3ccccc3)n2)cc1	2.11 µM	7.52 µM	7.27 µM	24.5 µM	10.6 µM	23 µM	4.91 µM	27.6 µM	3.51 µM	18.9 µM	4.2 µM	20 µM	3.25 µM	19 µM	1.19 µM	6.43 µM	5.5 µM	26.9 µM	5.28 µM	20.4 µM
C[C@]12CC[C@@H]3c4cc(O)c(O)cc4CC[C@H]3[C@@H]1CC[C@@H]2O	1.35 µM	> 100 µM	2.77 µM	> 31.3 µM	4.46 µM	> 100 µM	2.33 µM	24.7 µM	3.07 µM	18 µM	2.73 µM	> 42.5 µM	10.5 µM	> 100 µM	3.32 µM	29 µM	3.51 µM	77.2 µM	6.21 µM	> 100 µM
C=C1C(=O)O[C@H]2C[C@@H]1CC/C(C)=C/CC/C(C)=C/CC[C@@]2(C)O	44.4 µM	> 100 µM	51 µM	> 100 µM	45.3 µM	> 100 µM	20.7 µM	45.7 µM	37.3 µM	> 100 µM	35 µM	> 100 µM	29.9 µM	95 µM	19.5 µM	42.7 µM	24.5 µM	> 100 µM	24.9 µM	65.7 µM
CC1(C)CC[C@]2(C(=O)O)CC[C@]3(C)C(=CC[C@@H]4[C@@]5(C)C[C@H](O)[C@H](O)[C@@](C)(C(=O)O)[C@@H]5CC[C@]43C)[C@@H]2C1		> 100 µM		> 100 µM		> 100 µM		> 31.6 µM		> 100 µM		> 100 µM		> 100 µM		> 100 µM		> 100 µM		> 100 µM
